Reference: patent publication US10738007B2, “Amide compounds as kinase inhibitors, compositions and methods of treatment” (TRANSLATIONAL DRUG DEVELOPMENT, LLC, priority 2016, dated 2020)
pIC50: −log10 of the molar value. Like-named read-outs stand apart in the source and are kept apart here.

Assays:
MV411 cell line = experiment: Cell viability assay ([…]-GLO), MV411; type: cell-based; conditions: for pIC50: Homo sapiens, MV4-11, MV411 (ITD-FLT3+), 72 hours treatment; for FLT3-ITD+ Selectivity (K562/MV411): ratio K562/MV411
ROCK2 = ROCK2 (Homo sapiens (Human), UniProt O75116); experiment: ROCK2 kinase inhibition assay (peptide phosphorylation, LABCHIP 3000); type: biochemical; conditions: 7 μM ATP, 2.5 nM ROCK2, 3 hours at 25° C.
Protocol: (§1) The peptide is phosphorylated by the protein kinase ROCK1 or ROCK2. The ROCK1 or ROCK2 enzyme, substrate, and cofactors (ATP and Mg^2+) are combined in a well of a microtiter plate and incubated for 3 hours at 25° C. in the presence or absence of an inhibitor compound. At the end of the incubation, the reaction is quenched by the addition of an EDTA-containing buffer. The substrate and product are separated and quantified electrophoretically using the microfluidic-based LABCHIP® 3000 Drug Discovery System from Caliper Life Sciences (Hopkinton, Mass.).
(§2) The components of the assay mixture are:
10 μM Sodium Orthovanadate
10 LM Beta-Glycerophosphate
(§3) 5 μM ATP (for ROCK1) or 7 μM ATP (for ROCK2)
3 nM ROCK1 or 2.5 nM ROCK2 enzyme
(§4) Substrate and product peptides present in each sample are separated electrophoretically using the LABCHIP® 3000 capillary electrophoresis instrument. […] Change in the relative fluorescence intensity of the substrate and product peaks is the parameter measured reflecting enzyme activity. Capillary electrophoregramms (RDA acquisition files) are analyzed using HTS Well Analyzer software (Caliper Life Sciences, Hopkinton, Mass.). The kinase activity in each sample is determined as the product to sum ratio (PSR): P/(S+P), where P is the peak height of the product peptide and S is the peak height of the substrate peptide. For each compound, enzyme activity is measured at various concentrations (12 concentrations of compound spaced by 3× dilution intervals). Negative control samples (0%-inhibition in the absence of inhibitor) and positive control samples (100%-inhibition in the presence of 20 mM EDTA) are assembled in replicates of four and are used to calculate %-inhibition values for each compound at each concentration. Percent inhibition (Pinh) is determined using the following equation: Pinh=(PSRO %−PSRinh)/(PSRO %−PSR100%)*100
(§5) where PSRinh is the product sum ratio in the presence of inhibitor, PSRO % is the average product sum ratio in the absence of inhibitor, and PSR100% is the average product sum ratio in 100%-inhibition control samples. The IC50 values of inhibitors are determined by fitting the inhibition curves (Pinh versus inhibitor concentration) by the 4-parameter sigmoidal dose-response model using XLfit 4 software (IBDS).

K562 cell line = experiment: Cell viability assay ([…]-GLO), K562; type: cell-based; conditions: Homo sapiens; K562 (does not express ITD-FLT3), 72 hours treatment
Protocol: Cell viability in the presence of varying concentrations of the above listed compounds at different time points was used to assess cytotoxicity and the effect of the compounds on cell proliferation.
Cell viability was measured by the […]-GlO® cell viability assay from Promega (Madison, Wis.). The […]-GlO Luminescent Cell Viability Assay is a homogeneous method to determine the number of viable cells in culture based on quantitation of the ATP present, which signals the presence of metabolically active cells. Following treatment, […]-GlO® is added to treatment wells and incubated at 37° C. Luminescence values were measured at using a Molecular Devices Spectramax microplate reader.
Cells were grown to 70% confluency, trypsinized, counted, and seeded in 96 well flat-bottom plates at a final concentration of 2.5×10^3-5×10^3 cells/well (Day 0). Cells were allowed to incubate in growth media for 24 hours. Treatment with the test agents or standard agents began on Day 1 and continued for 72 hours. At the 72-hour time point, treatment containing media was removed. Viable cell numbers were quantified by the […]-GLO® cell viability assay as described above. Results from these studies were used to calculate an IC50 value (concentration of drug that inhibits cell growth by 50 percent of control) for each compound.
For single agent and combination studies, data from each experiment was collected and expressed as % Cell Growth using the following calculation: % Cell Growth=(ftest/fvehicle)×100
Where ftest is the luminescence of the tested sample, and fvehicle is the luminescence of the vehicle in which the drug is dissolved. Dose response graphs and IC50 values were generated using Prism 6 software (GraphPad) using the following equation: Y=(Top−Bottom)/(1+10^((logIC50-X)−HillSlope))
Where X is the logarithm of the concentration and Y is the response. Y starts at the Bottom and goes to the Top with a sigmoid shape.
The experiments also evaluated the selectivity of the compounds for inhibiting growth of cancer cells carrying a mutation in the Flt3 gene. The MV411 cell line expresses the mutant allele of Flt3 with internal tandem duplications (ITD) of the gene. See Quentmeier et al., “FLT3 Mutations in Acute Myeloid Leukemia Cell Lines,” Leukemia 17(1), 2003, 120-124. […] See Grafone et al., “Monitoring of FLT3 Phosphorylation Status and Its Response to Drugs By Flow Cytometry in AML Blast Cells,” Hematol Oncol. 26(3), 2008, 159-166.

ROCK1 = ROCK1 (Homo sapiens (Human), UniProt Q13464); experiment: ROCK1 kinase inhibition assay (peptide phosphorylation, LABCHIP 3000); type: biochemical; conditions: 5 μM ATP, 3 nM ROCK1, 3 hours at 25° C.
Protocol: as §1, §2
10 μM Sodium Orthovanadate
10 LM Beta-Glycerophosphate
as §3
3 nM ROCK1 or 2.5 nM ROCK2 enzyme
as §4, §5

[1] = Pharmacokinetic activity in mice; type: in vivo; conditions: for AUC(0-t): read-out: AUC0-8; for Vd: read-out: Vss
Protocol: Compounds were individually and accurately weighed out to produce a stock solution in Dimethyl-sulfoxide (DMSO) at a concentration of 2 mg/mL and stored at −20° C. From the stock solution, a working stock was prepared by diluting it in Methanol-Water 50:50 (v/v) at 20 μg/mL for calibration curve preparation and stored at 4° C. Standards used for quantitation and quality control samples (QCs) were prepared on the same day of sample processing using blank plasma obtained from non-treated mice. For each analyte, standards were prepared through serial dilutions of the working stock at concentrations of 0.1, 0.5, 1.0, 10, 50, 100, 500, and 1000 ng/mL; QCs were prepared at intermediate concentrations of 0.75, 7.5, 75, and 750 ng/mL. Plasma samples were stored at −80° C. until ready for analysis and then placed on ice for thawing. An aliquot of […] samples, standards, or QCs, were transferred into a 96-well extraction plate according to a pre-defined layout. An appropriate volume of Methanol-Formic Acid 99.9-0.1 containing internal standard (Verapamil at 25 ng/mL) was added to each well and the samples were extracted under vacuum. Eluent was then transferred into a LCMS plate for analysis using a suitable column for separation and MRM detection. Concentration of analytes was calculated based on the calibration curve and analyzed for pharmacokinetic parameters by using Non-compartmental analysis (NCA). Parameters such as Cmax, Tmax, half-life, AUC(0-last), AUC(0-∞), volume of distribution (Vss), and clearance (Cl/F) were reported.

Sequence of ROCK2 (O75116 whole entry, species assumed): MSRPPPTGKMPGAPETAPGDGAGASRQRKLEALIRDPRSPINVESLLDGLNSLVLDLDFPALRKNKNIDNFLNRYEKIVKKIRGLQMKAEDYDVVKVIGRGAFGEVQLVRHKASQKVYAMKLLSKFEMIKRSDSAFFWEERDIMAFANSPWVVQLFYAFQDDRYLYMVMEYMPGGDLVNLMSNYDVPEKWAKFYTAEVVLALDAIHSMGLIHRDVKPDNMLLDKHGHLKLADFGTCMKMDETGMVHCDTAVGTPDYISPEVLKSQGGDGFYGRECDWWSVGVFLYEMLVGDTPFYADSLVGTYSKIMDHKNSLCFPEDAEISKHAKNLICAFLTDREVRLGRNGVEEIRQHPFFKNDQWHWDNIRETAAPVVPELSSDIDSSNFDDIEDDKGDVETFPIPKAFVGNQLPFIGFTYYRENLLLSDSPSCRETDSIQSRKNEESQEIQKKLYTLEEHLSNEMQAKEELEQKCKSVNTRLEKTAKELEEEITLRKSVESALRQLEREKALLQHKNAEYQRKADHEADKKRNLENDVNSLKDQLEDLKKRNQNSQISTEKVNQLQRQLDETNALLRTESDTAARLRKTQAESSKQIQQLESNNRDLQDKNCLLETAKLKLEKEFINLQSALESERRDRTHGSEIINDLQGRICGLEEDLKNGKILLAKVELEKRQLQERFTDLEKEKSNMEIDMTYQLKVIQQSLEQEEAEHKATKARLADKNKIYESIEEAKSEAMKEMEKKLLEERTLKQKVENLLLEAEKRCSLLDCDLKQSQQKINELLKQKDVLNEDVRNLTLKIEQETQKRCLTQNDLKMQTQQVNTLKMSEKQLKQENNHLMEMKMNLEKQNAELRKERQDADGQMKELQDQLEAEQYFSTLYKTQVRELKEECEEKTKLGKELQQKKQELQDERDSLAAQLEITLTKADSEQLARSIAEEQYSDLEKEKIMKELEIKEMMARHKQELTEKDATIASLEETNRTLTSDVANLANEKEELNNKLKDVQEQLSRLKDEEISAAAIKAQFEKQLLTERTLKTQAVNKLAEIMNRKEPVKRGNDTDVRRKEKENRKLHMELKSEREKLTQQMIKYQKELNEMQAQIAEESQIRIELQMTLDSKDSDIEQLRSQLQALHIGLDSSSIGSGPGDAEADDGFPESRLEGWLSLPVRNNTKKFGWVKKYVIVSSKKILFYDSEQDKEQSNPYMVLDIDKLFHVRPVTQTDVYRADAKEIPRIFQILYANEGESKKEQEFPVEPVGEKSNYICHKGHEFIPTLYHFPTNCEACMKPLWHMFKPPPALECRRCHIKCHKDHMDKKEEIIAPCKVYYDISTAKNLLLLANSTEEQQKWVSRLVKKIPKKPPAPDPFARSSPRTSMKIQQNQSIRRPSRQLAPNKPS
Sequence of ROCK1 (Q13464 whole entry, species assumed): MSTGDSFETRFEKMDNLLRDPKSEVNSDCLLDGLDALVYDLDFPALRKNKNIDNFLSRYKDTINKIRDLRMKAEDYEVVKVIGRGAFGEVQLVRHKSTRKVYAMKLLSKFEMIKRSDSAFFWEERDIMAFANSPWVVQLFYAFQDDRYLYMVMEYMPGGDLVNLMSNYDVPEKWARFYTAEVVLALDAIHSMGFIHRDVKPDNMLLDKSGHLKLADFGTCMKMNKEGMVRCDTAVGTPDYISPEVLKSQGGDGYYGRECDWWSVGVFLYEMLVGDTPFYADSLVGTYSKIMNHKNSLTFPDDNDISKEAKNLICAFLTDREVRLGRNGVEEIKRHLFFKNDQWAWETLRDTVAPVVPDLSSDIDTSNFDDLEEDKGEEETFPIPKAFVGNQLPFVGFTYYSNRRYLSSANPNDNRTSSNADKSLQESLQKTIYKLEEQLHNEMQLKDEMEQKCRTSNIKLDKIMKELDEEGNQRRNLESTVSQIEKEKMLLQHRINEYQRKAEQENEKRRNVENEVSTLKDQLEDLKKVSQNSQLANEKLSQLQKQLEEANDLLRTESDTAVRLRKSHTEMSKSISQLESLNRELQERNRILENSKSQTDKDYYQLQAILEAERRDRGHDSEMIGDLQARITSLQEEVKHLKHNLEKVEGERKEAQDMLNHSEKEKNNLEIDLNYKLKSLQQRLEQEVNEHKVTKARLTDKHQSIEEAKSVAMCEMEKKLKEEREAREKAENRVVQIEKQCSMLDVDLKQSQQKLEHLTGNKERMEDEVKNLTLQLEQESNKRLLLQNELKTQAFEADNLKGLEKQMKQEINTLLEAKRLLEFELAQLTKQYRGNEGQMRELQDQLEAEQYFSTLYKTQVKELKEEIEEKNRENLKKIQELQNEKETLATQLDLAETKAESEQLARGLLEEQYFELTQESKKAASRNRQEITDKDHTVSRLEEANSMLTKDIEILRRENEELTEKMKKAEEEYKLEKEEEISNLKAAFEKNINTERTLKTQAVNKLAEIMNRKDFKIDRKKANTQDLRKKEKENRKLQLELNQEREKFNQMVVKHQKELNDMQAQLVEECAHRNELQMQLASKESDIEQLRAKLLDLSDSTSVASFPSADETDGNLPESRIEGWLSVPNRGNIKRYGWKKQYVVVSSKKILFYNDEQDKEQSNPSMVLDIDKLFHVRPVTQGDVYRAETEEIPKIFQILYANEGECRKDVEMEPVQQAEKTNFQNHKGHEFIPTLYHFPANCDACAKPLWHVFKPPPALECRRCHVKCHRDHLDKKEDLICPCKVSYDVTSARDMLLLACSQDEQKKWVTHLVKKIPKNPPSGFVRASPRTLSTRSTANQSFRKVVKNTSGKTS

Compound	pIC50 (MV411 cell line)	FLT3-ITD+ Selectivity (K562/MV411) (MV411 cell line)	pIC50 (ROCK2)	pIC50 (K562 cell line)	pIC50 (ROCK1)	other results
COCCOc1cc(-c2cn[nH]c2)ccc1C(=O)N[C@H](C)c1cccc(C(=O)NC2CCCC2)c1 [Compound 115]	6.62	188	8.99	4.35	8.41	–
CN1CCc2ccc(NC(=O)c3cccc(CNC(=O)c4ccc(-c5ccncc5)cc4)c3)cc2C1 [Compound B, reference compound]	5.89	15	8.06	4.70	8.00	–
O=C(NC1CCCCC1)c1cccc([C@@H](CO)NC(=O)c2ccc(-c3ccncc3)cc2)c1 [Compound 26]	5.13	6	8.82	4.32	8.43	–
CN1CCn2nc(NC(=O)c3cccc(CNC(=O)c4ccc(-c5ccncc5)cc4)c3)cc2C1 [Compound 1]	5.05	>11	8.22	< 4.00	7.94	–
COc1cc(-c2cn[nH]c2)ccc1C(=O)N[C@H](CO)c1cccc(C(=O)NC2CCCC2)c1 [Compound 81]	6.92	833	9.06	< 4.00	8.49	–
O=C(NCC1CCC(F)(F)CC1)c1cccc([C@@H](CO)NC(=O)c2ccc(-c3ccncc3)cc2)c1 [Compound 24]	5.82	19	8.92	4.55	8.66	–
CN(C)c1cccc(CNC(=O)c2cccc([C@@H](CO)NC(=O)c3ccc(-c4ccncc4)cc3)c2)c1 [Compound 31]	–	–	9.00	–	8.68	–
O=C(NC1CCN(CC(F)(F)F)CC1)c1cccc([C@@H](CO)NC(=O)c2ccc(-c3ccncc3)cc2)c1 [Compound 79]	7.52	>3333	9.17	< 4.00	8.72	–
O=C(COc1cccc(CNC(=O)c2ccc(-c3ccncc3)cc2)c1)NC1CC1 [Compound 3]	5.62	>42	7.85	< 4.00	7.41	–
CN(C)CCNC(=O)COc1cccc(CNC(=O)c2ccc(-c3ccncc3)cc2)c1 [Compound 4]	–	–	7.72	–	7.25	–
Cn1ccc2ccc(NC(=O)c3cccc([C@@H](CO)NC(=O)c4ccc(-c5ccncc5)cc4)c3)cc2c1=O [Compound 28]	5.62	>42	8.96	< 4.00	8.80	–
CN(C)Cc1ccc(CNC(=O)c2cccc([C@@H](CO)NC(=O)c3ccc(-c4ccncc4)cc3)c2)cc1 [Compound 32]	7.22	619	9.05	4.43	8.85	–
CCN(CC)C1CCC(NC(=O)c2cccc([C@@H](CO)NC(=O)c3ccc(-c4ccncc4)cc3)c2)CC1 (stereo partly drawn) [Compound 35]	–	–	8.92	–	8.80	–
CN1CCc2ccc(NC(=O)c3cccc([C@@H](CO)NC(=O)c4ccc(-c5ccncc5)cc4)c3)cc2C1 [Compound 7]	7.22	333	8.82	4.69	–	AUC % Extrap ([1]; IV - 1 mg/kg): 3.29%; Cl/F obs ([1]; IV - 1 mg/kg): 68.7 mL/min/kg; R-sq ([1]; IV - 1 mg/kg): 0.88; R-sq ([1]; PO - 5 mg/kg): 0.47; AUC(0-inf) ([1]; mouse, plasma, IV - 1 mg/kg): 243 ng·h/mL; C0 ([1]; mouse, plasma, IV - 1 mg/kg): 411 ng/mL; Cmax ([1]; mouse, plasma, IV - 1 mg/kg): 190 ng/mL; Tmax ([1]; mouse, plasma, IV - 1 mg/kg): 0.25 h; half-life ([1]; mouse, plasma, IV - 1 mg/kg): 6.43 h; AUC(0-t) ([1]; mouse, plasma, IV - 1 mg/kg): 235 ng·h/mL; Vd ([1]; mouse, plasma, IV - 1 mg/kg): 16.3 L/kg; Cmax ([1]; mouse, plasma, PO - 5 mg/kg): 5.3 ng/mL; Tmax ([1]; mouse, plasma, PO - 5 mg/kg): 1 h; AUC(0-t) ([1]; mouse, plasma, PO - 5 mg/kg): 81.6 ng·h/mL
COc1ccc(NC(=O)c2cccc([C@@H](CO)NC(=O)c3ccc(-c4ccncc4)cc3)c2)cn1 [Compound 80]	–	–	–	–	8.77	–
CN1CCc2ccc(NC(=O)c3cccc(C(CO)NC(=O)c4ccc(-c5ccncc5)cc4)c3)cc2C1 (stereo not drawn) [Compound 2]	–	–	8.55	–	8.55	–
CN(C)c1ccc(CNC(=O)c2cccc([C@@H](CO)NC(=O)c3ccc(-c4ccncc4)cc3)c2)cc1 [Compound 30]	–	–	8.82	–	8.54	–
O=C(NC1CCCC1)c1cccc([C@@H](CO)NC(=O)c2cccc(-c3ccncc3)c2)c1 [Compound 63]	6.85	>721	8.39	< 4.00	7.85	–
COC(=O)N1CCC(CNC(=O)c2cccc([C@@H](CO)NC(=O)c3ccc(-c4ccncc4)cc3)c2)CC1 [Compound 78]	7.52	>3333	9.24	< 4.00	8.77	–
O=C(NCC1CCCCC1)c1cccc([C@@H](CO)NC(=O)c2ccc(-c3ccncc3)cc2)c1 [Compound 21]	5.68	19	9.00	4.41	8.51	–
CCc1ccc(-c2ccncc2)cc1C(=O)N[C@H](CO)c1cccc(C(=O)NC2CCCC2)c1 [Compound 70]	6.51	275	9.05	4.07	8.42	–
C[C@@H](NC(=O)c1ccc(-c2ccncc2)cc1)c1cccc(C(=O)NC2CCCC2)c1 [Compound 36]	–	–	–	–	–	AUC % Extrap ([1]; IV - 1 mg/kg): 0.35%; Cl/F obs ([1]; IV - 1 mg/kg): 2.67 mL/min/kg; R-sq ([1]; IV - 1 mg/kg): 0.72; AUC % Extrap ([1]; PO - 5 mg/kg): 0.33%; R-sq ([1]; PO - 5 mg/kg): 1.00; AUC(0-inf) ([1]; mouse, plasma, IV - 1 mg/kg): 6070 ng·h/mL; C0 ([1]; mouse, plasma, IV - 1 mg/kg): 5910 ng/mL; Cmax ([1]; mouse, plasma, IV - 1 mg/kg): 4340 ng/mL; Tmax ([1]; mouse, plasma, IV - 1 mg/kg): 0.25 h; half-life ([1]; mouse, plasma, IV - 1 mg/kg): 2.59 h; AUC(0-t) ([1]; mouse, plasma, IV - 1 mg/kg): 5850 ng·h/mL; Vd ([1]; mouse, plasma, IV - 1 mg/kg): 0.27 L/kg; AUC(0-inf) ([1]; mouse, plasma, PO - 5 mg/kg): 10500 ng·h/mL; CL/F ([1]; mouse, plasma, PO - 5 mg/kg): 8 mL/min/kg; Cmax ([1]; mouse, plasma, PO - 5 mg/kg): 2500 ng/mL; Tmax ([1]; mouse, plasma, PO - 5 mg/kg): 1 h; half-life ([1]; mouse, plasma, PO - 5 mg/kg): 2.96 h; bioavailability ([1]; mouse, plasma, PO - 5 mg/kg vs IV - 1 mg/kg): 34.6%; AUC(0-t) ([1]; mouse, plasma, PO - 5 mg/kg): 8890 ng·h/mL; Vd/F ([1]; mouse, plasma, PO - 5 mg/kg, read-out: Vz/F obs): 2.04 L/kg
CN(C)Cc1cccc(CNC(=O)c2cccc([C@@H](CO)NC(=O)c3ccc(-c4cn[nH]c4)cc3)c2)c1 [Compound 82]	6.21	166	9.19	< 4.00	8.70	–
CCOc1cc(-c2cn[nH]c2)ccc1C(=O)N[C@H](C)c1cccc(C(=O)NC2CCCC2)c1 [Compound 103]	6.85	59	9.28	5.10	8.82	–
COC(=O)N1CCC(NC(=O)c2cccc([C@@H](CO)NC(=O)c3ccc(-c4ccncc4)cc3)c2)CC1 [Compound 77]	7.70	>5000	9.03	< 4.00	8.68	–
O=C(NC1CCCC1)c1cccc([C@@H](CO)NC(=O)c2ccc(-c3cn[nH]c3)cc2)c1 [Compound 46]	7.05	122	8.73	4.96	–	–
